Experimental data as given in PubChem BioAssay (NCI).
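Five concentrations, 48 hours, 96-well plates. GI50: concentration for 50% inhibition of growth. TGI: total growth inhibition.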

Assays:
Assay in all cases: NCI tumour cell line growth inhibition, 48 h
[1] = test system: HT29 colon
[2] = test system: SN12C renal
[3] = test system: U251 CNS
[4] = test system: SK-OV-3 ovarian
[5] = test system: EKVX NSCLC
[6] = test system: RPMI-8226 leukemia
[7] = test system: HCT-116 colon
[8] = test system: A549 NSCLC
[9] = test system: K-562 leukemia
[10] = test system: OVCAR-5 ovarian

Row | Structure (SMILES) | TGI [1] [µM] | TGI [2] [µM] | TGI [3] [µM] | TGI [4] [µM] | TGI [5] [µM] | TGI [6] [µM] | TGI [7] [µM] | TGI [8] [µM] | TGI [9] [µM] | TGI [10] [µM] | GI50 [1] [µM] | GI50 [2] [µM] | GI50 [3] [µM] | GI50 [4] [µM] | GI50 [5] [µM] | GI50 [6] [µM] | GI50 [7] [µM] | GI50 [8] [µM] | GI50 [9] [µM] | GI50 [10] [µM]
1 | Nc1nc(N)[n+]([O-])c(N)c1NCO | > 100 | > 100 | > 100 | > 100 | > 100 | > 100 | > 100 | > 100 | > 100 | > 100 | – | – | – | – | – | – | – | – | – | –
2 | CC(Cl)(/C=C/Cl)C(Cl)/C=C/C(Cl)(CCl)CBr (centres undefined) | 4.66 | 12.5 | 8.37 | 30.9 | > 77.3 | 7.31 | 3.39 | 47.3 | 14.2 | 29.5 | – | – | – | – | – | – | – | – | – | –
3 | COC(=O)c1cnc(=O)n(C2CC(O)C(CO)O2)c1 (centres undefined) | > 100 | > 100 | > 100 | > 100 | > 100 | > 58.5 | > 100 | > 100 | > 100 | > 100 | > 100 | > 100 | > 100 | > 100 | > 100 | 1.42 | > 100 | > 100 | > 100 | > 100
4 | Cc1cc(C)nc(NS(=O)(=O)c2ccc(Nc3c4ccccc4nc4c(C(=O)Nc5ccc(S(N)(=O)=O)cc5)cccc34)cc2)n1 | > 100 | > 100 | > 100 | 75.5 | 98.2 | > 100 | > 100 | > 100 | > 100 | > 100 | – | – | – | – | – | – | – | – | – | –
5 | COc1cc(-c2cc(C(=O)N3CCN(C(=O)c4ccccc4NCc4ccco4)CC3)nc3cc(-c4ccccc4)nn23)cc(OC)c1OC | 10.7 | > 100 | > 100 | 18.8 | > 100 | > 100 | > 100 | > 100 | > 100 | > 100 | 1.56 | 6.7 | 3.85 | 2.58 | 5.5 | 3.61 | 3.26 | 2.13 | 1.95 | 9.66
6 | CCOC(=O)C1C=C2O[C@@H]3OC4(CCCCC4)O[C@@H]3C2[C@H]2C(=O)C=CC(=O)[C@@]12C(=O)OC (some centres undefined) | 19.4 | 31.5 | 21.5 | 32.2 | 36.1 | 8.06 | 19.1 | 33.1 | 34.2 | 31.7 | – | – | – | – | – | – | – | – | – | –
7 | CCCCCCCCCCCCc1ccc(C(=O)/C=C/C(=O)O)cc1 | 4 | 4.14 | 18.9 | 30.4 | 17.1 | 6.75 | 3.39 | 30.7 | 5.74 | 23.1 | 1.81 | 1.83 | 5.63 | 16.2 | 4.09 | 2.11 | 1.54 | 13.8 | 2.13 | 10.3
8 | O=C1C2=C(c3ccccc31)C(c1cccc(Cl)c1)NC(=S)N2 (centres undefined) | > 100 | > 100 | > 100 | > 100 | > 100 | > 100 | > 100 | > 100 | > 100 | > 100 | – | – | – | – | – | – | – | – | – | –
9 | CCOP(=O)(OCC)C1C(=O)O[C@H]2CCCC[C@@H]12 (some centres undefined) | > 100 | > 100 | > 100 | > 100 | > 100 | > 100 | > 100 | > 100 | > 100 | > 100 | – | – | – | – | – | – | – | – | – | –
10 | O=[N+]([O-])c1ccc(Sc2ncccn2)c([N+](=O)[O-])c1 | 12.9 | 13.9 | 15.3 | 25.2 | 18.7 | 5.4 | 11.8 | 14.2 | 12.1 | 19.8 | 3.39 | 3.46 | 4.46 | 12.5 | 3.96 | 1.89 | 3.43 | 3.95 | 2.52 | 7.35
11 | NC(N)=NC(CC(=O)O)c1ccccc1 (centres undefined) | > 100 | > 100 | > 100 | > 100 | > 100 | > 100 | > 100 | > 100 | > 100 | > 100 | – | – | – | – | – | – | – | – | – | –
12 | Nc1cccc2c1C(=O)N(C1CCC(=O)NC1=O)C2=O (centres undefined) | > 100 | > 100 | > 100 | > 100 | > 100 | > 100 | > 100 | > 100 | > 100 | > 100 | > 100 | > 100 | > 100 | > 100 | > 100 | > 100 | > 100 | > 100 | > 100 | > 100
13 | C[C@H]1[C@H](OC(=O)CCC(=O)O)O[C@@H]2O[C@]3(C)CC[C@H]4[C@H](C)CC[C@@H]1[C@@]24OO3 | 16.8 | > 48.9 | 18.5 | > 89 | 18.3 | 13 | 11.4 | 18.3 | 10 | 20.5 | 0.627 | 0.777 | 0.503 | 16.7 | 0.443 | 0.0948 | 0.129 | 0.959 | 0.443 | 0.669
14 | COc1ccccc1C(=O)/C=C/c1cc2cccc(OC)c2[nH]c1=O | 4.02 | 2.64 | 1.5 | 14.9 | 3.17 | 1.42 | 0.632 | 12.6 | > 89.1 | 2.89 | < 0.0131 | 0.079 | 0.0319 | 0.554 | 0.375 | < 0.0181 | < 0.0225 | 0.069 | < 0.0125 | 0.321
15 | COc1ccc(-c2cc(-c3ccc(Nc4nc(Nc5ccc(Cl)cc5)nc(Nc5ccc(Cl)cc5)n4)cc3)nc(N)c2C#N)cc1 | 13 | > 100 | 6.58 | > 28.1 | > 21.9 | > 21.9 | 3.65 | > 100 | 5.38 | 24 | 2.25 | 2.58 | 2.29 | 8.71 | 8.16 | 0.931 | 1.65 | 3.64 | 1.61 | 4.14
16 | CCCCCCC(=O)C/C(CCC(=O)N(Cc1ccccc1)Cc1ccccc1)=N\Nc1ccc([N+](=O)[O-])cc1[N+](=O)[O-] | > 100 | > 100 | > 100 | > 100 | > 100 | > 100 | > 100 | > 100 | 58.2 | > 100 | – | – | – | – | – | – | – | – | – | –
17 | O=C(Nc1n[nH]c2nc(-c3ccco3)c(Br)cc12)C1CC1 | > 25 | > 25 | > 25 | > 25 | > 25 | > 25 | > 25 | > 25 | > 25 | > 25 | > 25 | > 25 | > 25 | 15.9 | > 25 | > 25 | > 25 | > 25 | > 25 | > 25
18 | O=[N+]([O-])c1ccc(-c2ccc(/C=N/n3c(-c4ccc(Cl)cc4)n[nH]c3=S)o2)cc1 | > 55.2 | > 100 | > 53.7 | > 100 | > 100 | > 31.6 | 43.6 | > 64.6 | > 31.6 | > 100 | – | – | – | – | – | – | – | – | – | –
19 | COc1cc(C2C(Cl)C(=O)N2n2cnc3ccccc3c2=O)cc(OC)c1OC (centres undefined) | > 100 | > 100 | > 100 | > 100 | > 100 | > 100 | > 100 | > 100 | > 100 | > 100 | – | – | – | – | – | – | – | – | – | –
20 | O=S(=O)(O)CS(=O)(=O)OCCCl | > 100 | > 100 | > 100 | > 100 | > 100 | > 100 | > 100 | > 100 | > 100 | > 100 | – | – | – | – | – | – | – | – | – | –
21 | O=C(c1cccs1)c1c(C(F)(F)F)n([O-])c2ccc(C(F)(F)F)cc2[n+]1=O | 0.364 | 0.468 | 0.322 | 2.56 | 0.529 | 1.12 | 0.314 | 0.31 | 1.21 | 0.494 | 0.19 | 0.195 | 0.179 | 1.24 | 0.241 | 0.279 | 0.17 | 0.134 | 0.251 | 0.205
22 | FC(F)(F)P1C2C=CC(CC2)C1(F)F (centres undefined) | > 100 | > 100 | > 100 | > 100 | > 100 | > 100 | > 100 | > 100 | > 100 | > 100 | – | – | – | – | – | – | – | – | – | –
23 | CNC(=O)OCc1nc(SC(C)C)n(C)c1COC(=O)NC | > 100 | > 100 | > 100 | > 100 | > 100 | > 100 | > 100 | > 100 | > 100 | > 100 | – | – | – | – | – | – | – | – | – | –
24 | CCOC(=O)/C(C1=N[C@H](C(=O)OCC)CS1)=C(\C)O | > 100 | > 100 | > 100 | – | > 100 | > 100 | > 100 | > 100 | > 100 | > 100 | – | – | – | – | – | – | – | – | – | –
